# Results as given in patent EP4725956A1, “MODIFIED POLYPEPTIDE AND USE THEREOF IN FIELD OF ANALGESIA” (Nanjing Anji Biotechnology Co., Ltd., priority 2023, dated 2024).
# Positions of bridges follow the written chain, without caps; N, C: chain ends. Non-standard residues stand in square brackets, D forms with d. Residues, ends and D or L forms follow the SMILES beside them. Bip = N[C@@H](Cc1ccc(-c2ccccc2)cc1)C(=O)O; Hyp = O=C(O)[C@@H]1C[C@@H](O)CN1; Nle = CCCC[C@H](N)C(=O)O; Orn = NCCC[C@H](N)C(=O)O; Aib = CC(C)(N)C(=O)O
# What was measured:
# α9 nAChR = biological target: T1, α9 nAChR (Homo sapiens, UniProt Q9UGM1); experiment: BLI (biolayer interferometry) affinity of peptides to α9 nAChR; type: binding; conditions: NTA sensor, α9 nAChR 5 µg/mL, peptide 1.372-1000 nM in PBS
# T1 construct: inferred from capture on NTA sensor
# T1 sequence (Q9UGM1 23-479): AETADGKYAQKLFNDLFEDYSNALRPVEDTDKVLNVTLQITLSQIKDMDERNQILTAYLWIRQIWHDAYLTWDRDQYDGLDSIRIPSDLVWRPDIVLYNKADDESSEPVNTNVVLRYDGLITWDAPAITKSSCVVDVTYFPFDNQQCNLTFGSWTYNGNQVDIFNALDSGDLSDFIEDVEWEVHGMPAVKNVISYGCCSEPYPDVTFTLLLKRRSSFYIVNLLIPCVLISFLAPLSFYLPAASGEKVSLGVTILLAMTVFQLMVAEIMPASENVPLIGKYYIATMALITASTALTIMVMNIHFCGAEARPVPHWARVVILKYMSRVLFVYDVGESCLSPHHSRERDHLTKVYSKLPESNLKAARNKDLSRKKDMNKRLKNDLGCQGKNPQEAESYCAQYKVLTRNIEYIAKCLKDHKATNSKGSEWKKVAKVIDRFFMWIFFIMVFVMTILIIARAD
# Source text: BLI is a label-free technology that converts optical interference signals occurring on the surface of BLI biosensors into real-time response signals. By monitoring the molecular binding process in real time, the system determines association rate constants (ka or kon), dissociation rate constants (kd or koff), and initial binding rates, and calculates affinity (KD) by fitting analysis. Here are the specific procedures: NTA sensors (Sartorius) were placed in a pre-wetting tray, which was then positioned in a black 96-well plate with 200 µL PBS per well. The NTA sensors were pre-wetted for at least 15 minutes. The target protein α9 nAChR was diluted in PBS to 5 µg/mL, with 200 µL added per well. Test peptides were dissolved in PBS and serially diluted threefold, with concentrations from high to low as 1000 nM, 333.3 nM, 111.1 nM, 37.04 nM, 12.35 nM, 4.115 nM, and 1.372 nM, with an additional well with PBS only as a zeroconcentration control. After equilibrating the instrument baseline, the NTA sensor was used to immobilize the target protein α9 nAChR. Once immobilization was complete, the baseline was re-equilibrated, followed by a 5-minute association and a 5-minute dissociation phase. Affinity measurements of the test peptides were conducted sequentially using the above procedure. The procedure for measuring peptide affinity to α7 nAChR was similar, except that the α7 nAChR concentration was 20 µg/mL. Tables 2 and 3 show the BLI-determined affinities of alanine-scan peptide analogs with target proteins, which identified sites on the parent peptide suitable for modification. Subsequently, single-site non-natural amino acid substituted peptides were evaluated by BLI for target protein affinity. Finally, multi-site combinatorial modified peptides were measured for affinity by BLI, leading to the selection of high-affinity peptides for further screen and drug development potential. Table 2 Test Results for Affinity of Modified Peptides to α9 nAChR
# [1] = test system: mouse diabetic neuropathic pain model; experiment: Mouse diabetic neuropathic pain model (Example 10); type: in vivo
# Experimental: Except for the control group, the remaining male C57 mice (Hangzhou Ziyuan Experimental Animal Technology Co., Ltd.) were continuously fed a high-sugar, high-fat diet for approximately ten weeks. For the model group, mice were fasted overnight, and streptozotocin (STZ) (Sann Chemical Technology (Shanghai) Co., Ltd.) was dissolved in sodium citrate-citric acid buffer solution and intraperitoneally injected at a dose of 70 mg/kg. About two weeks after STZ injection, the mechanical pain threshold of mice was measured. Mice were placed on a perforated wire mesh for adaptation, and the plantar surface of the right hind paw was vertically stimulated with a blunt needle. Pain threshold data were collected using a biosignal acquisition system. Each mouse was measured three times, and the average value was calculated. Mice were then randomly assigned to groups based on their pain thresholds for drug administration.
# Day 1 of dosing: Drug administration was performed according to Table 9. Mechanical pain thresholds of the plantar surface were measured at 0 h, 2 h, 4 h, 6 h, and 8 h after administration.
# [2] = test system: mouse oxaliplatin acute chemotherapy pain model; experiment: Mouse oxaliplatin chemotherapy pain model, multiple peptides (Example 8); type: in vivo; conditions: single dose 3 mg/kg s.c., 0.5-8 h post-dose, n=3
# Experimental: Oxaliplatin was dissolved in 5% glucose solution to a concentration of 1 mg/mL. For model induction, each male C57 mouse (Shanghai Bikai Keyi Biotechnology Co., Ltd.) received a single intraperitoneal injection of oxaliplatin at 10 mg/kg. Mice in the negative control or blank control group received 5% glucose solution. Approximately one week after model induction, mechanical pain thresholds of the mice were measured three times per mouse, and the average value was calculated. Mice were then randomly assigned to groups based on their pain thresholds. Drug administration was carried out according to the dosing schedule shown in Table 7, with a single dose per mouse. Mechanical pain thresholds were measured at 0.5, 1, 2, 4, 6, and 8 h post-dose. […] Table 7 Dosing Scheme for Oxaliplatin Chemotherapy Pain Model in Mice
# [3] = Plasma stability of AJ003-40 and AJ003-24 (HPLC, Example 4); type: in vitro ADME; conditions: human plasma; for main peak area: 2 mg/mL
# Experimental: Peptides AJ003-40 and AJ003-24 were separately weighed and mixed with human plasma to prepare solutions at 2 mg/mL. 300 µL of peptide-containing plasma was mixed with 300 µL acetonitrile, centrifuged at 4°C and 12,000 rpm for 5 minutes, and the supernatant was filtered through an organic membrane. 200 µL of the filtrate was transferred to an LC vial as the 0 h sample. Peptide-containing plasma was incubated in a 37°C water bath. For AJ003-40, 300 µL of plasma was sampled at 24 h, mixed with 300 µL acetonitrile, centrifuged, filtered, and 200 µL of the filtrate was transferred to an LC vial as the 24 h sample. For AJ003-24, 300 µL of plasma was sampled at 22 h, processed similarly, and 200 µL of the filtrate was transferred to an LC vial as the 22 h sample.
# [4] = Day 1 of dosing, 2 h and 4 h, 2 mg/kg s.c. (AJ003; AJ003-36 medium dose)
# [5] = Day 1 of dosing, 6 h and 8 h, 2 mg/kg s.c. (AJ003; AJ003-36 medium dose)
# [6] = Day 4 of dosing, 2 h and 4 h, 2 mg/kg s.c. (AJ003; AJ003-36 medium dose)
# [7] = Day 4 of dosing, 6 h and 8 h, 2 mg/kg s.c. (AJ003; AJ003-36 medium dose)
# [8] = Day 8 of dosing, 2 h and 4 h, 2 mg/kg s.c. (AJ003; AJ003-36 medium dose)
# [9] = Day 8 of dosing, 6 h and 8 h, 2 mg/kg s.c. (AJ003; AJ003-36 medium dose)
# [10] = Day 14 of dosing, 2 h and 4 h, 2 mg/kg s.c. (AJ003; AJ003-36 medium dose)
# [11] = Day 14 of dosing, 6 h and 8 h, 2 mg/kg s.c. (AJ003; AJ003-36 medium dose)
smiles,measurement,setting,value
"CC(C)C[C@H](NC(=O)[C@@H](NC(=O)[C@H]1CSSC[C@H](NC(=O)[C@H](CO)NC(=O)CN)C(=O)N[C@@H](CO)C(=O)N[C@@H]([C@@H](C)O)C(=O)N2CCC[C@H]2C(=O)N2CCC[C@H]2C(=O)N[C@@H](CO)C(=O)N1)C(C)C)C(=O)N[C@@H](Cc1ccc(O)cc1)C(=O)N[C@@H](CO)C(=O)O [AJ003, GSCSTPPS-(D-Cys)-VLYS (disulfide bond between positions 3 and 9)] (H-GSCSTPPS[dC]VLYS-OH; disulfide 3-9)",Kd,α9 nAChR,4.48 nM
same,analgesic activity compared with the model group (mechanical pain threshold),[1]; [4],significant analgesic activity
same,analgesic activity compared with the model group (mechanical pain threshold),[1]; [5],did not show significant differences
same,analgesic activity compared with the model group (mechanical pain threshold),[1]; [6],significant analgesic activity
same,analgesic activity compared with the model group (mechanical pain threshold),[1]; [7],no significant difference
same,analgesic activity compared with the model group (mechanical pain threshold),[1]; [8],significant analgesic activity
same,analgesic activity compared with the model group (mechanical pain threshold),[1]; [9],no significant difference
same,analgesic activity compared with the model group (mechanical pain threshold),[1]; [10],significant analgesic activity
same,analgesic activity compared with the model group (mechanical pain threshold),[1]; [11],did not show significant differences
"CCCC[C@H](NC(=O)[C@@H](NC(=O)[C@H]1CSSC[C@H](NC(=O)[C@H](CO)NC(=O)CN)C(=O)N[C@@H](CO)C(=O)N[C@H]([C@H](C)O)C(=O)N2C[C@H](O)C[C@H]2C(=O)N2C[C@H](O)C[C@H]2C(=O)NC(C)(C)C(=O)N1)C(C)C)C(=O)N[C@@H](Cc1ccc(-c2ccccc2)cc1)C(=O)N[C@@H](CCCN)C(N)=O [AJ003-36, GSCS-(D-Thr)-Hyp-Hyp-Aib-(D-Cys)-V-Nle-Bip-Orn-NH2 (3,9 disulfide bond)] (H-GSCS[dT][Hyp][Hyp][Aib][dC]V[Nle][Bip][Orn]-NH2; disulfide 3-9)",analgesic activity compared with the model group (mechanical pain threshold),"[1]; Day 1 of dosing, 2 h and 4 h, 1 mg/kg s.c. (low dose)",significant analgesic activity
same,analgesic activity compared with the model group (mechanical pain threshold),[1]; [4],significant analgesic activity
same,analgesic activity compared with the model group (mechanical pain threshold),"[1]; Day 1 of dosing, 2 h and 4 h, 3 mg/kg s.c. (high dose)",significant analgesic activity
same,analgesic activity compared with the model group (mechanical pain threshold),"[1]; Day 1 of dosing, 6 h and 8 h, 1 mg/kg s.c. (low dose)",significant analgesic activity
same,analgesic activity compared with the model group (mechanical pain threshold),[1]; [5],significant analgesic activity
same,analgesic activity compared with the model group (mechanical pain threshold),"[1]; Day 1 of dosing, 6 h and 8 h, 3 mg/kg s.c. (high dose)",significant analgesic activity
same,analgesic activity compared with the model group (mechanical pain threshold),"[1]; Day 4 of dosing, 2 h and 4 h, 1 mg/kg s.c. (low dose)",significant analgesic activity
same,analgesic activity compared with the model group (mechanical pain threshold),[1]; [6],significant analgesic activity
same,analgesic activity compared with the model group (mechanical pain threshold),"[1]; Day 4 of dosing, 2 h and 4 h, 3 mg/kg s.c. (high dose)",significant analgesic activity
same,analgesic activity compared with the model group (mechanical pain threshold),"[1]; Day 4 of dosing, 6 h and 8 h, 1 mg/kg s.c. (low dose)",significant analgesic activity
same,analgesic activity compared with the model group (mechanical pain threshold),[1]; [7],significant analgesic activity
same,analgesic activity compared with the model group (mechanical pain threshold),"[1]; Day 4 of dosing, 6 h and 8 h, 3 mg/kg s.c. (high dose)",significant analgesic activity
same,analgesic activity compared with the model group (mechanical pain threshold),"[1]; Day 8 of dosing, 2 h and 4 h, 1 mg/kg s.c. (low dose)",significant analgesic activity
same,analgesic activity compared with the model group (mechanical pain threshold),[1]; [8],significant analgesic activity
same,analgesic activity compared with the model group (mechanical pain threshold),"[1]; Day 8 of dosing, 2 h and 4 h, 3 mg/kg s.c. (high dose)",significant analgesic activity
same,analgesic activity compared with the model group (mechanical pain threshold),"[1]; Day 8 of dosing, 6 h and 8 h, 1 mg/kg s.c. (low dose)",no significant difference
same,analgesic activity compared with the model group (mechanical pain threshold),[1]; [9],significant analgesic activity
same,analgesic activity compared with the model group (mechanical pain threshold),"[1]; Day 8 of dosing, 6 h and 8 h, 3 mg/kg s.c. (high dose)",significant analgesic activity
same,analgesic activity compared with the model group (mechanical pain threshold),"[1]; Day 14 of dosing, 2 h and 4 h, 1 mg/kg s.c. (low dose)",significant analgesic activity
same,analgesic activity compared with the model group (mechanical pain threshold),[1]; [10],significant analgesic activity
same,analgesic activity compared with the model group (mechanical pain threshold),"[1]; Day 14 of dosing, 2 h and 4 h, 3 mg/kg s.c. (high dose)",significant analgesic activity
same,analgesic activity compared with the model group (mechanical pain threshold),"[1]; Day 14 of dosing, 6 h and 8 h, 1 mg/kg s.c. (low dose)",significant analgesic activity
same,analgesic activity compared with the model group (mechanical pain threshold),[1]; [11],significant analgesic activity
same,analgesic activity compared with the model group (mechanical pain threshold),"[1]; Day 14 of dosing, 6 h and 8 h, 3 mg/kg s.c. (high dose)",significant analgesic activity
same,analgesic activity compared with pregabalin,"[1]; high dose 3 mg/kg s.c. vs pregabalin 60 mg/kg oral, over four administrations",slightly superior analgesic activity
same,analgesic activity against oxaliplatin-induced chemotherapy pain (mechanical pain threshold compared with the model group),[2],effective analgesic activity
"CCCC[C@H](NC(=O)[C@@H](NC(=O)[C@H]1CSSC[C@H](NC(=O)[C@H](CO)NC(=O)CN)C(=O)N[C@@H](CO)C(=O)N[C@H]([C@H](C)O)C(=O)N2C[C@H](O)C[C@H]2C(=O)N2C[C@H](O)C[C@H]2C(=O)N[C@@H](CO)C(=O)N1)C(C)C)C(=O)N[C@@H](Cc1c[nH]c2ccccc12)C(=O)N[C@@H](CCCN)C(N)=O [AJ003-40, GSCS-(D-Thr)-Hyp-Hyp-S-(D-Cys)-V-Nle-W-Orn-NH2 (3,9 disulfide bond)] (H-GSCS[dT][Hyp][Hyp]S[dC]V[Nle]W[Orn]-NH2; disulfide 3-9)",main peak area,[3]; 0 h,15149.38
same,main peak area,"[3]; 37°C, 24 h",11829.51
same,"metabolised at 24 h, 2 mg/mL","[3]; 37°C, 24 h, read-out: degradation",21.9%
